Test results from patent EP4803513A1, “SUBSTITUTED QUINAZOLINE COMPOUND, PREPARATION METHOD THEREFOR, PHARMACEUTICAL COMBINATION THEREOF, AND USE THEREOF” (Hongyun Biotech Co., Ltd., priority 2023, dated 2025).

tested on: BRK-BaF3 cells; assay: Cell antiproliferative activity assay (CCK-8), BRK-BaF3; type: cell-based; conditions: 72 h, CCK-8, 3 days incubation
Method: The activity of compounds against BRK kinase can be evaluated by their inhibition of the growth of the BRK kinase-stably transfected BaF3 cell line (BRK-BaF3) and wild-type BaF3 cells (WT-BaF3). […] The larger the ratio of the half-maximal growth inhibitory concentration (IC50) of a compound between WT-BaF3 and BRK-BaF3 cells, the better the selectivity of the compound.
BRK-BaF3, WT-BaF3, WEHI cell line, and breast cancer cell line T47D were cultured using RPMI 1640 Basal medium or DMEM (Dulbecco's Modified Eagle Medium) (Shanghai Peiyuan Biotechnology, L220KJ), supplemented with 10% FBS (Gibco, REF 10099-141C) and 1% P/S (Shanghai Peiyuan Biotechnology, S110JV), in an incubator (Thermo 3020) at 37°C with 5% CO2. Cell viability was above 95%. Cells were passaged at a 3:1 ratio every 3-4 days. For WT-BaF3 cells, WEHI cells were first cultured, and their culture supernatant was filtered through a 0.22 µm filter. This supernatant was added at 10% to the regular culture medium to supplement IL-3 required for WT-BaF3 cell proliferation, which served as the culture medium for WT-BaF3. For testing, cells were first collected and counted, then prepared into a cell suspension at 100,000 cells/mL and plated at 100 µL per well. Drug concentrations started from 10 µM and were serially diluted 3:1. After incubation for 3 days, 20 µL of CCK-8 detection reagent (Targetmol C005) was added to each well. After incubation for 2-4 hours, OD450 was measured using a microplate reader (Varioskan LUX, Thermo Scientific). After subtracting the blank background, the curve was fitted and the IC50 was calculated using XLfit software.

SMILES	IC50
Cc1ccc(C#N)nc1-c1cc(C(C)C)c2nc(Nc3cn(CCO)nc3C)ncc2c1 [I-5]	≤ 20 nM
Cc1nn(CCO)cc1Nc1ncc2cc(-c3ccnc(F)c3F)cc(C(C)C)c2n1 [I-15]	20 to 100 nM
Cc1nn(CCO)cc1Nc1ncc2cc(-c3cc(F)ncc3F)cc(C(C)C)c2n1 [I-16]	≤ 20 nM
CC(=O)c1cc(-c2cc(C(C)C)c3nc(Nc4cn(CCO)nc4C)ncc3c2)ccn1 [I-18]	≤ 20 nM
Cc1cnc(F)cc1-c1cc(C(C)C)c2nc(Nc3cnn(CCO)c3C)ncc2c1 [I-19]	20 to 100 nM
Cc1nn(CCO)cc1Nc1ncc2cc(-c3cccnc3C(F)F)cc(C(C)C)c2n1 [I-23]	20 to 100 nM
CCc1ncccc1-c1cc(C(C)C)c2nc(Nc3cn(CCO)nc3C)ncc2c1 [I-24]	≤ 20 nM
Cc1nn(CCO)cc1Nc1ncc2cc(-c3cncc(Br)c3Cl)cc(C(C)C)c2n1 [I-37]	≤ 20 nM
Cc1nn(CCO)cc1Nc1ncc2cc(-c3cncc(Cl)c3Cl)cc(C(C)C)c2n1 [I-38]	≤ 20 nM
Cc1c(Nc2ncc3cc(-c4cnccc4F)cc(C(C)C)c3n2)cnn1CCO [I-58]	20 to 100 nM
Cc1c(Nc2ncc3cc(-c4cnccc4C#N)cc(C(C)C)c3n2)cnn1CCO [I-63]	20 to 100 nM
Cc1c(F)cncc1-c1cc(C(C)C)c2nc(Nc3cnn(CCO)c3C)ncc2c1 [I-67]	≤ 20 nM
Cc1ncc(F)cc1-c1cc(C(C)C)c2nc(Nc3cnn(CCO)c3C)ncc2c1 [I-69]	20 to 100 nM
Cc1c(Nc2ncc3cc(-c4c(F)ccnc4F)cc(C(C)C)c3n2)cnn1CCO [I-70]	≤ 20 nM
Cc1ccnc(C)c1-c1cc(C(C)C)c2nc(Nc3cnn(CCO)c3C)ncc2c1 [I-71]	≤ 20 nM
Cc1nn(CCO)cc1Nc1ncc2cc(-c3nccnc3Cl)cc(C(C)C)c2n1 [I-80]	≤ 20 nM
Cc1nn(CCO)cc1Nc1ncc2cc(-c3cncc(Cl)n3)cc(C(C)C)c2n1 [I-89]	20 to 100 nM
COc1cncc(-c2cc(C(C)C)c3nc(Nc4cn(CCO)nc4C)ncc3c2)n1 [I-91]	20 to 100 nM
Cc1nn(CCO)cc1Nc1ncc2cc(-c3cccnn3)cc(C(C)C)c2n1 [I-115]	20 to 100 nM

SMILES	IC50
Cc1ncnc(C)c1-c1cc(C(C)C)c2nc(Nc3cnn(CCO)c3C)ncc2c1 [I-145]	20 to 100 nM
Cc1nn(CCO)cc1Nc1ncc2cc(-c3cccc(F)c3F)cc(C(C)C)c2n1 [I-156]	≤ 20 nM
Cc1nn(CCO)cc1Nc1ncc2cc(-c3cc(F)cc(F)c3)cc(C(C)C)c2n1 [I-158]	≤ 20 nM
Cc1nn(CCO)cc1Nc1ncc2cc(-c3cc(F)ccc3F)cc(C(C)C)c2n1 [I-159]	≤ 20 nM
Cc1ccc(F)cc1-c1cc(C(C)C)c2nc(Nc3cn(CCO)nc3C)ncc2c1 [I-161]	≤ 20 nM
Cc1nn(CCO)cc1Nc1ncc2cc(-c3cccc4c3OCO4)cc(C(C)C)c2n1 [I-163]	≤ 20 nM
Cc1nn(CCO)cc1Nc1ncc2cc(-c3cccc4c3OCO4)cc(C3CC3)c2n1 [I-166]	20 to 100 nM
Cc1c(Nc2ncc3cc(-c4cc(F)ccc4F)cc(C(C)C)c3n2)cnn1CCO [I-169]	20 to 100 nM
Cc1ccc(F)cc1-c1cc(C(C)C)c2nc(Nc3cnn(CCO)c3C)ncc2c1 [I-171]	≤ 20 nM
Cc1c[nH]c(=O)cc1-c1cc(C(C)C)c2nc(Nc3cn(CCO)nc3C)ncc2c1 [I-172]	≤ 20 nM
Cc1c[nH]c(=O)cc1-c1cc(C(C)C)c2nc(Nc3cn(C(C)(C)CO)nc3C)ncc2c1 [I-173]	20 to 100 nM
Cc1c[nH]c(=O)cc1-c1cc(C(C)C)c2nc(Nc3cnn(CCO)c3)ncc2c1 [I-174]	≤ 20 nM
Cc1c[nH]c(=O)cc1-c1cc(C(C)C)c2nc(Nc3cn(CC(C)(C)O)nc3C)ncc2c1 [I-175]	≤ 20 nM
Cc1c[nH]c(=O)cc1-c1cc(C(C)C)c2nc(Nc3cnn(CC(C)(C)O)c3C)ncc2c1 [I-180]	≤ 20 nM
Cc1ccc2[nH]ncc2c1-c1cc(C(C)C)c2nc(Nc3cn(CCO)nc3C)ncc2c1 [I-182]	≤ 20 nM
Cc1ccc2[nH]ncc2c1-c1cc(C(C)C)c2nc(Nc3cnn(CCO)c3C)ncc2c1 [I-183]	≤ 20 nM
Cc1nn(CCO)cc1Nc1ncc2cc(-c3cncc4ccccc34)cc(C(C)C)c2n1 [I-184]	≤ 20 nM
Cc1cc2cn[nH]c2cc1-c1cc(C(C)C)c2nc(Nc3cn(CCO)nc3C)ncc2c1 [I-185]	20 to 100 nM
Cc1nn(CCO)cc1Nc1ncc2cc(-c3c[nH]c4ncccc34)cc(C(C)C)c2n1 [I-186]	20 to 100 nM

Results, then the compound that gave them:

IC50	SMILES
20 to 100 nM	Cc1nn(C)cc1Nc1ncc2cc(-c3cc[nH]c(=O)c3)cc(C(C)C)c2n1 [III-1]
≤ 20 nM	Cc1c[nH]c(=O)cc1-c1cc(C(C)C)c2nc(Nc3cnn(C)c3C)ncc2c1 [III-3]
≤ 20 nM	Cc1c[nH]c(=O)cc1-c1cc(C(C)C)c2nc(Nc3cn(C)nc3Cl)ncc2c1 [III-5]
20 to 100 nM	COc1nn(C)cc1Nc1ncc2cc(-c3cc(=O)[nH]cc3C)cc(C(C)C)c2n1 [III-6]
≤ 20 nM	Cc1c[nH]c(=O)cc1-c1cc(C(C)C)c2nc(Nc3cn(C(F)F)nc3C)ncc2c1 [III-7]
≤ 20 nM	Cc1c[nH]c(=O)cc1-c1cc(C(C)C)c2nc(Nc3cnn(C(F)F)c3C)ncc2c1 [III-8]
≤ 20 nM	[2H]C([2H])([2H])n1ncc(Nc2ncc3cc(-c4cc(=O)[nH]cc4C)cc(C(C)C)c3n2)c1C [III-10]
≤ 20 nM	Cc1c[nH]c(=O)cc1-c1cc(C(C)C)c2nc(Nc3c[nH]nc3C)ncc2c1 [III-11]
≤ 20 nM	CCn1cc(Nc2ncc3cc(-c4cc(=O)[nH]cc4C)cc(C(C)C)c3n2)c(C)n1 [III-12]
≤ 20 nM	Cc1c[nH]c(=O)cc1-c1cc(C(C)C)c2nc(Nc3cn(C4CCN(C)CC4)nc3C)ncc2c1 [III-13]
≤ 20 nM	Cc1c[nH]c(=O)cc1-c1cc(C(C)C)c2nc(Nc3cn(C4CCN(C(C)C)CC4)nc3C)ncc2c1 [III-16]
≤ 20 nM	Cc1c[nH]c(=O)cc1-c1cc(C(C)C)c2nc(Nc3cnn(C4CCN(C(C)C)CC4)c3C)ncc2c1 [III-17]
20 to 100 nM	Cc1c[nH]c(=O)cc1-c1cc(C(C)C)c2nc(Nc3cn(C4CCN(C5COC5)CC4)nc3C)ncc2c1 [III-18]
20 to 100 nM	Cc1c[nH]c(=O)cc1-c1cc(C(C)C)c2nc(Nc3cn([C@@H]4C[C@H]5CC[C@@H](C4)N5C)nc3C)ncc2c1 [III-25]
≤ 20 nM	Cc1c[nH]c(=O)cc1-c1cc(C(C)C)c2nc(Nc3cnn([C@@H]4C[C@H]5CC[C@@H](C4)N5C)c3C)ncc2c1 [III-26]
≤ 20 nM	Cc1c[nH]c(=O)cc1-c1cc(C(C)C)c2nc(Nc3cn(C4CCN(C)CC4)nc3C(F)(F)F)ncc2c1 [III-27]
≤ 20 nM	Cc1c[nH]c(=O)cc1-c1cc(C(C)C)c2nc(Nc3cnn(C4CCN(C)CC4)c3C(F)(F)F)ncc2c1 [III-28]
≤ 20 nM	CCc1nn(C2CCN(C)CC2)cc1Nc1ncc2cc(-c3cc(=O)[nH]cc3C)cc(C(C)C)c2n1 [III-29]
≤ 20 nM	CCc1c(Nc2ncc3cc(-c4cc(=O)[nH]cc4C)cc(C(C)C)c3n2)cnn1C1CCN(C)CC1 [III-30]

IC50	SMILES
≤ 20 nM	COc1nn(C2CCN(C)CC2)cc1Nc1ncc2cc(-c3cc(=O)[nH]cc3C)cc(C(C)C)c2n1 [III-31]
≤ 20 nM	COc1nn(C2CCN(C(C)C)CC2)cc1Nc1ncc2cc(-c3cc(=O)[nH]cc3C)cc(C(C)C)c2n1 [III-32]
20 to 100 nM	Cc1c[nH]c(=O)cc1-c1cc(C(C)C)c2nc(Nc3cn(-c4cncnc4)nc3C)ncc2c1 [III-34]
≤ 20 nM	Cc1c[nH]c(=O)cc1-c1cc(C(C)C)c2nc(Nc3cn(C4CCCN(C)CC4)nc3C)ncc2c1 (stereo not drawn) [III-35]
≤ 20 nM	Cc1c[nH]c(=O)cc1-c1cc(C(C)C)c2nc(Nc3cnn(C4CCCN(C)CC4)c3C)ncc2c1 (stereo not drawn) [III-36]
≤ 20 nM	Cc1c[nH]c(=O)cc1-c1cc(C(C)C)c2nc(Nc3cn(C4CCN(C)C4)nc3C)ncc2c1 (stereo not drawn) [III-38]
≤ 20 nM	Cc1c[nH]c(=O)cc1-c1cc(C(C)C)c2nc(Nc3cn(C4CCN(C(C)C)C4)nc3C)ncc2c1 (stereo not drawn) [III-39]
≤ 20 nM	Cc1c[nH]c(=O)cc1-c1cc(C(C)C)c2nc(Nc3cn(C4COC4)nc3C)ncc2c1 [III-40]
≤ 20 nM	COCCn1cc(Nc2ncc3cc(-c4cc(=O)[nH]cc4C)cc(C(C)C)c3n2)c(C)n1 [III-42]
≤ 20 nM	COCCn1ncc(Nc2ncc3cc(-c4cc(=O)[nH]cc4C)cc(C(C)C)c3n2)c1C [III-43]
20 to 100 nM	COCCOCCn1cc(Nc2ncc3cc(-c4cc(=O)[nH]cc4C)cc(C(C)C)c3n2)c(C)n1 [III-44]
≤ 20 nM	COC[C@@H](C)n1cc(Nc2ncc3cc(-c4cc(=O)[nH]cc4C)cc(C(C)C)c3n2)c(C)n1 [III-45]
≤ 20 nM	COC[C@@H](C)n1ncc(Nc2ncc3cc(-c4cc(=O)[nH]cc4C)cc(C(C)C)c3n2)c1C [III-46]
≤ 20 nM	Cc1c[nH]c(=O)cc1-c1cc(C(C)C)c2nc(Nc3cn([C@@H](C)C(=O)N(C)C)nc3C)ncc2c1 [III-48]
20 to 100 nM	Cc1c[nH]c(=O)cc1-c1cc(C(C)C)c2nc(Nc3cnn([C@@H](C)C(=O)N(C)C)c3C)ncc2c1 [III-49]
≤ 20 nM	CCN(C)CCn1cc(Nc2ncc3cc(-c4cc(=O)[nH]cc4C)cc(C(C)C)c3n2)c(C)n1 [III-51]
≤ 20 nM	CCN(C)CCn1ncc(Nc2ncc3cc(-c4cc(=O)[nH]cc4C)cc(C(C)C)c3n2)c1C [III-52]
≤ 20 nM	COCCN(C)CCn1cc(Nc2ncc3cc(-c4cc(=O)[nH]cc4C)cc(C(C)C)c3n2)c(C)n1 [III-54]
